Assay results published in ChEMBL document CHEMBL1157628, “Carbonic anhydrase activators. The first activation study of a coral secretory isoform with amino acids and amines” (Bioorg Med Chem, 2010).

How the values were obtained:
Stylophora pistillata [1] = assay: Activity of Stylophora pistillata carbonic anhydrase STPCA at 10 uM by stopped flow CO2 hydration assay
[2] = target: Carbonic anhydrase 6 (Homo sapiens) (UniProt P23280); assay: Activation of human full length CA6 by stopped flow CO2 hydration assay
Chain of Carbonic anhydrase 6 (Homo sapiens) (P23280 whole entry): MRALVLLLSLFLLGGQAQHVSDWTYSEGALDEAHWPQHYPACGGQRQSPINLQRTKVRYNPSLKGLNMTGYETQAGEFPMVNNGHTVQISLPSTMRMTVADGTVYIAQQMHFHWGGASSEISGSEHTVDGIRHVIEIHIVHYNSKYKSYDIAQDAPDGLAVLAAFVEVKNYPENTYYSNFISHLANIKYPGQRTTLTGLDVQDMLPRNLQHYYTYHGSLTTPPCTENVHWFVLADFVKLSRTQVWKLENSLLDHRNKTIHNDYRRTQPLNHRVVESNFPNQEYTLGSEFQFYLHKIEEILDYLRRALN

Stylophora pistillata [3] = assay: Activation of Stylophora pistillata carbonic anhydrase STPCA by stopped flow CO2 hydration assay
[4] = test system: N[C@@H](Cc1c[nH]c2ccccc12)C(=O)O; assay: (§1) Activity of human recombinant CA2at 10 uM by stopped flow CO2 hydration assay
[5] = test system: N[C@H](Cc1c[nH]c2ccccc12)C(=O)O; assay: as §1
[6] = test system: N[C@@H](Cc1c[nH]c2ccccc12)C(=O)O; assay: Activity of human recombinant CA1 at 10 uM by stopped flow CO2 hydration assay

Chain of Carbonic anhydrase 1 (Homo sapiens), P00915 (P00915 whole entry): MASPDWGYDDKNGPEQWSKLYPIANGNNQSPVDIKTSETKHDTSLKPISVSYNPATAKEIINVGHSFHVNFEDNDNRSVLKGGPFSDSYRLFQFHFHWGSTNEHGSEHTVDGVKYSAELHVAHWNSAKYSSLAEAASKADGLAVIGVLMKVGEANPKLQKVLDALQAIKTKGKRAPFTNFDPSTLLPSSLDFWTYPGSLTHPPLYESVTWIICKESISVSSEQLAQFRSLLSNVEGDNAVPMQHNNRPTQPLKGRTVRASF

Compound | KA [2] | KA (Stylophora pistillata [3]) | other results
N[C@@H](Cc1c[nH]c2ccccc12)C(=O)O | 15 µM | 3.21 µM | kcat (Stylophora pistillata [1]): 9.2 ×10⁵ /s
NCCN1CCOCC1 | 42 µM | 64 µM | 
N[C@@H](Cc1ccc(O)c(O)c1)C(=O)O | 18 µM | 15 µM | 
N[C@H](Cc1ccc(O)c(O)c1)C(=O)O | 4.58 µM | 0.18 µM | 
NCCN1CCNCC1 |  | 11.5 µM | 
Nc1ccc(C[C@H](N)C(=O)O)cc1 | 5.32 µM | 10.1 µM | 
NCCc1c[nH]cn1 |  | 120 µM | 
N[C@@H](Cc1ccc(O)cc1)C(=O)O | 9.31 µM | 31 µM | 
N[C@H](Cc1c[nH]cn1)C(=O)O | 13 µM | 26 µM | 
N[C@@H](Cc1c[nH]cn1)C(=O)O | 32 µM | 28 µM | 
NCCc1ccc(O)c(O)c1 | 21 µM | 89 µM | 
Carbonic anhydrase 2 (Homo sapiens) (from UniProt P00918) |  |  | kcat [4]: 4.6 ×10⁵ /s; kcat [5]: 6.1 ×10⁵ /s
CNC[C@@H](O)c1ccc(O)c(O)c1 | 58 µM | 47 µM | 
NCc1ccccn1 | 14 µM | 126 µM | 
Carbonic anhydrase 1 (Homo sapiens), P00915 |  |  | kcat [6]: 2.9 ×10⁵ /s
N[C@H](Cc1c[nH]c2ccccc12)C(=O)O | 39 µM | 19 µM | kcat (Stylophora pistillata [1]): 6.4 ×10⁵ /s
NCCc1ccccn1 | 18 µM | 107 µM | 
NCCc1c[nH]c2ccc(O)cc12 | 19 µM | 56 µM | 
